Patent US20060269579A1, “Compositions for treating osteoarthritis” (Musculoskeletal Research LLC, priority 2005, published 2006)

Assays:
connexin 43 = connexin 43 (Homo sapiens, UniProt P17302); details: Leybaert et al. 2003; cited from earlier work
synovial lining cells = details: human
[1] = tested on: effect of IL-1 on synovial cells; details: cited from earlier work

connexin 43, sequence (P17302 2-382 limits assumed): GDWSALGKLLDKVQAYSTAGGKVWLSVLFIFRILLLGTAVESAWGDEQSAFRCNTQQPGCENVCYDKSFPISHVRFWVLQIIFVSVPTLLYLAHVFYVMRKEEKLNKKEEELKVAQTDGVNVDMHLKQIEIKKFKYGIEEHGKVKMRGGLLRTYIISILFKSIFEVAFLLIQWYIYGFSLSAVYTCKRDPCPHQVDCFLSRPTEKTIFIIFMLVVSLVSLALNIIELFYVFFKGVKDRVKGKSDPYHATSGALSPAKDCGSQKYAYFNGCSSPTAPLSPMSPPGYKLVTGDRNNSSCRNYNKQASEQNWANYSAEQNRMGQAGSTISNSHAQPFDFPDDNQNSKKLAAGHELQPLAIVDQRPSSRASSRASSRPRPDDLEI

Molecule | block of connexin 43 (connexin 43) | concentration in compositions that must not be exceeded (synovial lining cells) [µg/mL] | total dose that must not be exceeded (synovial lining cells) [mg] | interference with the effect of IL-1 on synovial cells [1]
VCYDKSFPISHVR [synthetic tridecapeptide, connexin 43 residue numbers 63-75, mimetic peptide] | able to block connexin 43 | – | – | –
CCN(CC)CCNC(=O)c1ccc(N)cc1 [procainamide] | – | ≤ 2000 | ≤ 2.0 | –
COc1ccc(CCN(C)CCCC(C#N)(c2ccc(OC)c(OC)c2)C(C)C)cc1OC (stereo not drawn) [verapamil] | – | ≤ 2000 | ≤ 2.0 | capable of interfering with the effect of IL-1 on synovial cells
SRPTEKTIFII [undecapeptide, connexin 43 residue numbers 204-214, mimetic peptide] | able to block connexin 43 | – | – | –
COC(=O)C1=C(C)NC(C)=C(C(=O)OC)C1c1ccccc1[N+](=O)[O-] [nifedipine] | – | ≤ 2000 | ≤ 2.0 | –
